According to patent US20070021357A1, “Treatment of inflammatory conditions” (Dynamis Therapeutics, Inc., priority 2005, published 2007):
Several values for one entry are separate records, joined by “and”; a condition that tells them apart may be missing. Equal entries are not always repeated.

Key:
[1] = biological target: T1, Calf skin collagen Type I (Bos taurus, UniProt P02453+P02465); assay: 3DG-induced collagen crosslinking, CNBr digestion and SDS-PAGE; type: biochemical; conditions: 37° C., 24 hours
T1 construct: Calf skin collagen Type I (1.3 mg; Sigma); purchased Sigma; host or cells: calf skin
Method: Collagen type I was treated with 3DG in the presence or absence of arginine. The samples were subjected to cyanogen bromide (CNBr) digestion, electrophoresed on a 16.5% SDS Tris-tricine gel, and then the gels were processed using silver stain techniques to visualize the proteins. Lane 1 contains molecular weight marker standards. Lanes 2 and 5 contain 10 and 20 μl of the collagen mixture following CNBr digestion. Lanes 3 and 6 contain the collagen mixture treated with 3DG and then digested with CNBr, and loaded at 10 and 20 μl, respectively. Lanes 4 and 7 contain the mixture of collagen incubated with 5 mM 3DG and 10 mM arginine and then digested with CNBr, and loaded at 10 and 20 μl, respectively.
Collagen I was incubated in the presence or absence of 3DG in vitro. Calf skin collagen Type I (1.3 mg; Sigma) was incubated in 20 mM Na-phosphate buffer, pH 7.25, either alone, with 5 mM 3DG, or with 5 mM 3DG plus 10 mM arginine, in a total volume of 1 ml at 37° C. for 24 hours and then frozen and lyophilized. The residue was dissolved in 0.5 ml of 70% formic acid and cyanogen bromide was added (20:1, w/w). This solution was incubated at 30° C. for 18 hours. […] The extent of collagen crosslinking was determined by applying equal volumes of sample and analyzing by SDS-PAGE electrophoresis (16.5% Tris-tricine gel), as determined by the effects of 3DG on the migration of collagen.

[2] = set-up: species or system human; conditions: in vivo
Method: 260 g of casein, 120 g of glucose and 720 ml of water were mixed to give a homogeneous mixture. This mixture was transferred to a metal plate and heated at 65° C. for 68 hours. The resulting cake was then pulverized to a coarse powder.
Volunteers spent two days on a fructoselysine-free diet and then consumed 22.5 g of the food product prepared as described herein, thus effectively receiving a 2 gram dose of fructoselysine. Urine was collected at 2 hour intervals for 14 hours and a final collection was made at 24 hours.
FL was measured by HPLC with a Waters 996 diode Array using a Waters C18 Free Amino Acid column at 46° C. and a gradient elution system of acetonitrile-methyl alcohol-water (45:15:40) into acetonitrile-sodium acetate-water (6:2:92) at 1 ml/min. Quantitation employed an internal standard of meglumine.
3DF was measured by HPLC after deionization of the sample. Analyses were performed on a Dionex DX-500 HPLC system employing a PA1 column (Dionex) and eluting with 32 mM sodium hydroxide at 1 ml/min. Quantitation was performed from standard curves obtained daily with synthetic 3DF.
3DG was measured by GC-MS after deionization of the sample. 3DG was derivatized with a 10-fold excess of diaminonaphthalene in PBS. […] Quantitation of 3DG employed selected ion monitoring using an internal standard of U-13C-3DG.

[3] = tested on: kinase activity in the kidney cortex; assay: Radioactive assay of FL3P production from FL and ATP; type: biochemical, pig; conditions: 10 mM FL, 10 mM γ33P-ATP, 30 minutes at 37° C., pH 7.5
Method: A 3 g sample of fresh pig kidney cortex was homogenized in 9 ml of 50 mM Tris.HCl containing 150 mM KCl, 5 mM DTT, 15 mM MgCl2, pH 7.5. This was centrifuged at 10,000 g for 30 minutes, and then the supernatant was centrifuged at 100,000 g for 60 minutes. Ammonium sulfate was added to 60% saturation. After 1 hour at 4° C. the precipitate was collected by centrifugation and dissolved in 5 ml. of original buffer. A 2 ml aliquot of this solution was incubated with 10 mM ATP and 10 mM of FL (prepared as in Example 1, above) for 2 hours at 37° C. The reaction was quenched with 300 μl of perchloric acid, centrifuged to remove protein, and desalted on a column of Sephadex G 10 (5×10 cm). ^31P NMR analysis of the reaction mixture detected formation of FL3P.
Based on the proof of kinase activity thus obtained, a radioactive assay was developed. This assay was designed to take advantage of the binding to Dow-50 cation exchange resin by FL3P. This characteristic of FL3P was discovered during efforts to isolate it. […] A 0.5 ml volume of supernatant was pipetted into 10 ml of Ecoscint A and counted. […] The relationship between rates of FL3P production and enzyme concentration was determined using triplicate determinations with 1, 2, and 4 mg of protein for 30 minutes at 37° C. Blanks run concurrently without FL were subtracted and the data recorded. […]

mouse mesangial cells = assay: Type IV collagen production in kidney cells in vitro; type: cell-based
Method: Type IV collagen production was measured in mouse mesangial cells. Controls (grown with […]) produced 300 ng of Type IV collagen per 10,000 cells, whereas fructoselysine treated cells (5 or 10 mM fructoselysine with 10 mM glucose) produced 560 and 1100 ng/10,000 cells.

amadorase = assay: Amadorase-dependent production of 3DG in vitro; type: biochemical; conditions: FL 2.6 mM, after 24 hours
3DG [4] = assay: Plasma 3DG levels in diabetic and non-diabetic rats; type: in vivo; conditions: 50 mg/kg body weight injections in saline, within one week
Method: A cohort of twelve diabetic rats was divided into two groups of six. The first group received saline-only injections, and the second received injections of 3-O-methyl sorbitollysine (50 mg/kg body weight) in saline solution. The same procedure was conducted on a cohort of twelve non-diabetic rats.

3DG [5] = conditions: Kappler et al., 2002; cited from earlier work
[6] = Locus of 3-O-methyl sorbitollysine uptake in vivo (tissues, urine, plasma); set-up: species or system rats
Method: […] Urine was collected for 3 hours, after which the rats were sacrificed. The tissues to be analyzed were removed and freeze clamped in liquid nitrogen. Perchloric acid extracts of the tissues were used for metabolite analysis. The tissues examined were taken from the brain, heart, muscle, sciatic nerve, spleen, pancreas, liver, and kidney. Plasma was also analyzed.

diabetic rats = assay: Skin elasticity/muscle strength measurement on alert, restrained rats; type: in vivo; conditions: preliminary data
Method: FIG. 15 is graphic illustration of the effects of DYN 12 (3-O-methylsorbitollysine) treatment on skin elasticity. Diabetic or normal rats were treated with DYN 12 (50 mg/kg daily) or saline for eight weeks and then subjected to skin elasticity tests. The four groups used included diabetic controls (saline injection; solid black bar), diabetics treated with DYN 12 (open bar), normal animal controls (saline injections; stippled bar), and normal animals treated with DYN 12 (cross-hatched bar). Data are expressed in kilopascals (kPA) and are shown as averages of the results obtained with each particular group of test subjects. Measurements were taken on the hind leg of the test subjects and were taken on an alert animal restrained by a technician.
Skin elasticity measurements were also taken on the test subjects as described above, but without sedating the test animals before measurement. FIG. 15 illustrates skin elasticity measurements taken on the hind leg of the test subjects while the subjects were alert and being restrained by a technician.
In these experiments, the animals were fiercely fighting restraint and the results are different.

STZ-diabetic rats = assay: Skin elasticity measurement (vacuum pull) in STZ-diabetic and normal rats; type: in vivo; conditions: 50 mg/kg daily, eight weeks, p=0.39
Method: Experiments were performed to determine the effects of DYN 12 on the loss of skin elasticity associated with diabetes. To this end, two groups of STZ-diabetic rats and two groups of normal rats were subjected to treatment with DYN 12 or saline. One group of STZ-diabetic rats (n=9) received daily subcutaneous injections of DYN 12 at 50 mg/kg for eight weeks, as did one group of normal rats (n=6). A group of control diabetic rats (n=10) and a group of normal rats (n=6) received saline instead of DYN 12. One rat was removed from the diabetic DYN 12 group after 2 weeks because its blood glucose readings were inconsistent (too low) with other diabetic rats.
A non-invasive procedure based on CyberDERM, Inc. technology utilizing a skin elasticity measurement device was used to test the effects of DYN 12 treatment on skin elasticity. The procedure provides for non-invasive measurement of skin elasticity based upon the amount of vacuum pull required to displace skin. A suction cup probe is adhered to an area of shaved skin in order to form an airtight seal. Then, a vacuum is applied to the area of the skin inside the suction cup until the skin is displaced past a sensor located inside the probe. Accordingly, the more pressure that is required to displace the skin, the less elastic the skin is.

3DG [7] = conditions: disclosed in WO 98/33492; cited from earlier work
3-deoxyglucosone = assay: Reduction of urinary and plasma 3-deoxyglucosone in rats after intraperitoneal injection; type: in vivo; conditions: 10 μmols intraperitoneal, plasma at end of three hours vs before
Method: Urine was collected from six rats for three hours. A plasma sample was also obtained. The animals were then given 10 μmols of either sorbitollysine, mannitollysine, or galactitollysine by intraperitoneal injection. Urine was collected for another three hours, and a plasma sample obtained at the end of the three hours.
a. 3-deoxyglucosone was measured in the samples, as described in Example 5, below, and variable volumes were normalized to creatinine. The average reduction of urinary 3-deoxyglucosone was 50% by sorbitollysine, 35% by mannitollysine and 35% by galactitollysine. Plasma 3-deoxyglucosone was reduced 40% by sorbitollysine, 58% by mannitollysine and 50% by galactitollysine.
Three rats were treated as in b), immediately above, except meglumine (100 μmols) was injected intraperitoneally instead of the above-mentioned lysine derivatives. Three hours after the injection the average 3-deoxyglucosone concentrations in the urine were decreased 42%.
3DG was measured by GC-MS after deionization of the sample. 3DG was derivatized with a 10-fold excess of diaminonaphthalene in PBS. Ethyl acetate extraction gave a salt free fraction which was converted to the trimethyl silyl ethers with Tri-Sil (Pierce). Analysis was performed on a Hewlett-Packard 5890 selected ion monitoring GC-MS system. GC was performed on a fused silica capillary column (DB-5.25 mx.25 mm) using the following temperature program: injector port 250° C., initial column temperature 150° C. which is held for 1 minute, then increased to 290° C. at 16° C./minute and held for 15 minutes. Quantitation of 3DG employed selected ion monitoring using an internal standard of U-13C-3DG.

T1 sequence (P02453 162-1217 limits assumed): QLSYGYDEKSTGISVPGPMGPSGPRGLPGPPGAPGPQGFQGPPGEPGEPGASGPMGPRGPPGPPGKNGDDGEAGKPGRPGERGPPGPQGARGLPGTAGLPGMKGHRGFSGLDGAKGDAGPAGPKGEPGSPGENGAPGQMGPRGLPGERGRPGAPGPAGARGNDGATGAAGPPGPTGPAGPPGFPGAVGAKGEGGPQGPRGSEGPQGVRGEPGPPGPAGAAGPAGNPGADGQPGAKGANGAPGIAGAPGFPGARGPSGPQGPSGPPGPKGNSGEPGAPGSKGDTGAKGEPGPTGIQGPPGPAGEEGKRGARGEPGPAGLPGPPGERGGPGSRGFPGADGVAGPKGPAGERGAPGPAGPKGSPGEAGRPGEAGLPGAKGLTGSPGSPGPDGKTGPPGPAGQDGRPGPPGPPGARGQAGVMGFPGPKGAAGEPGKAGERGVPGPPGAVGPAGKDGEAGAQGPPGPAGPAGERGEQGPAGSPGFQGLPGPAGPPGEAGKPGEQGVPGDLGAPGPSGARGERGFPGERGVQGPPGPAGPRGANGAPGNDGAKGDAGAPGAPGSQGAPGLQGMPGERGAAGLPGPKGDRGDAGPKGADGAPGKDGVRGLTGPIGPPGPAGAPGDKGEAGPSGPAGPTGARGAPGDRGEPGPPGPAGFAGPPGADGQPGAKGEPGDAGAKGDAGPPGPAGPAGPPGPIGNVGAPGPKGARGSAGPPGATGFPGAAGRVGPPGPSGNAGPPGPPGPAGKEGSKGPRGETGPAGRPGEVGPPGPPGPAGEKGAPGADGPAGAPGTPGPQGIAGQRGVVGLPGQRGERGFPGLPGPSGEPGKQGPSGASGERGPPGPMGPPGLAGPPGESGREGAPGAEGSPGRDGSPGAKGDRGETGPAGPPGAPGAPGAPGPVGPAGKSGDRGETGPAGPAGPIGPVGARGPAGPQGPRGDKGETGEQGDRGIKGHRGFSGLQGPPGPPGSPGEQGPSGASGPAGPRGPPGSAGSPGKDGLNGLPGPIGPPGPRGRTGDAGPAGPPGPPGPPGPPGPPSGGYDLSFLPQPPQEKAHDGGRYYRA
T1 sequence (P02465 80-1117 limits assumed): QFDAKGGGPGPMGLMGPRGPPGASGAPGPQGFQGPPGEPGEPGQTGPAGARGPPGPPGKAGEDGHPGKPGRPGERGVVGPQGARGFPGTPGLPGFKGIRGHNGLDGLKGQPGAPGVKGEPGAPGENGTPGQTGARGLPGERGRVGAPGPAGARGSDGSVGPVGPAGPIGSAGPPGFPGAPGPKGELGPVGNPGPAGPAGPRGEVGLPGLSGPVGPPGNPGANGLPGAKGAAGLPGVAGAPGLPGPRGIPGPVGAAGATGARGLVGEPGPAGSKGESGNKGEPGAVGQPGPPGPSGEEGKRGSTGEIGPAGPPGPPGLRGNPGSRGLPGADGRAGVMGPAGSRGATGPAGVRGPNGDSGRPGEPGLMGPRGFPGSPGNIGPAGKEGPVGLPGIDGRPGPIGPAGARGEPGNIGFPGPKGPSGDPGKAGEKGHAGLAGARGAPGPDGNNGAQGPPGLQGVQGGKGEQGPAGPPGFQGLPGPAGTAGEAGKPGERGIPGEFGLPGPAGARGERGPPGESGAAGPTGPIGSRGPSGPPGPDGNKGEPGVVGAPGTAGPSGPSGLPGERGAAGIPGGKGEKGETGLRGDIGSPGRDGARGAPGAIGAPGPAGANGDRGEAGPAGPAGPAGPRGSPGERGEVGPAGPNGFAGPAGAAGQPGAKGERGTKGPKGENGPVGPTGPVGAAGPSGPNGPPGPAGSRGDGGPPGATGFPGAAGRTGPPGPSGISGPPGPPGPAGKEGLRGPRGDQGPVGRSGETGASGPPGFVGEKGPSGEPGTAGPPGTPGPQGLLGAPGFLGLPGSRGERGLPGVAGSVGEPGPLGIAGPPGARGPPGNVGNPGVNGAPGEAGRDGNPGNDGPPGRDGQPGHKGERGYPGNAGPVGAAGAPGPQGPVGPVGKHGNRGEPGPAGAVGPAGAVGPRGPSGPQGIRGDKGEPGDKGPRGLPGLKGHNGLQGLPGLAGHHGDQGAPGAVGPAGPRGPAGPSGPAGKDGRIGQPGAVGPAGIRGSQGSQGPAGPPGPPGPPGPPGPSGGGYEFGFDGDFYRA

In the case of `O=CC(=O)C[C@H](O)[C@H](O)CO` [3DG, 3-deoxyglucosone, reference compound], the “collagen crosslinking (migration of collagen on gel)” value ([1]; collagen I with 5 mM 3DG) was “migrate as if it had a higher molecular weight”.
With `N=C(N)NCCC[C@H](N)C(=O)O` [arginine] the “inhibition of 3DG induced collagen crosslinking (high molecular weight bands on gel)” value ([1]; collagen I with 5 mM 3DG plus 10 mM arginine) was “fewer high molecular bands”.
With `NC(CCCCNCC(=O)C(O)C(O)C(O)CO)C(=O)O` (centres unmarked) [FL, 1-deoxy-1-(ε-aminolysine)-fructose] the “time of peak urinary 3DF excretion after the bolus” value [2] was “about 4 hours”, the “approximate FL3P synthesis rate” value [3] was ~20 nmols/hr/mg protein and the “Type IV collagen produced” value (mouse mesangial cells; 5 mM fructoselysine with 10 mM glucose) was 560 ng/10,000 cells. The “Type IV collagen produced” value (mouse mesangial cells; 10 mM fructoselysine with 10 mM glucose) was 1100 ng/10,000 cells, the “3DG” value (amadorase; Reaction 1: Amadorase +, ATP +) was 1.58 mM and the “FL3P” value (amadorase; Reaction 1: Amadorase +, ATP +) was 0.2 mM. For the same compound, the “3DG” value (amadorase; Reaction 2: Amadorase +, ATP −) was 0.08 mM, the “FL3P” value (amadorase; Reaction 2: Amadorase +, ATP −) was 0 mM and the “3DG” value (amadorase; Reaction 3: Amadorase −, ATP +) was 0.09 mM. The “FL3P” value (amadorase; Reaction 3: Amadorase −, ATP +) was 0 mM, the “3DG” value (amadorase; Reaction 4: Amadorase −, ATP −) was 0.08 mM and the “FL3P” value (amadorase; Reaction 4: Amadorase −, ATP −) was 0 mM.
In the case of `COC(C(O)CNCCCCC(N)C(=O)O)C(O)C(O)CO` (centres unmarked) [DYN 12, 3-O-methylsorbitollysine], the “plasma 3DG levels” value (3DG [4]; Diabetic rats) is listed as 0.44 ± 0.10 µM, the “plasma 3DG levels” value (3DG [4]; Non-diabetic rats) is listed as 0.13 ± 0.02 µM and the “3DG levels in the plasma of diabetic and non-diabetic animals” value (3DG [5]) is listed as “reduces 3DG levels”. The “only tissue extract found to contain the compound” value ([6]; brain, heart, muscle, sciatic nerve, spleen, pancreas, liver, kidney examined 3 hours after i.p. injection) was “kidney”, the “total 3OMeSL recovered” value ([6]; individual rats, urine plus kidneys, 13500 nmols injected, listed as 3OMeSL, in nmol) was 12355 and 5235 and 13011 and 8257 and 7151 and 7193 and the “% 3OMeSL recovered” value ([6]; individual rats, urine plus kidneys, of injected dose, listed as 3OMeSL) was 91.5% and 38.8% and 96.4% and 61.2% and 53.0% and 53.3%. The “muscle strength measured while alert, vs diabetic rats not so treated” value (diabetic rats) was “stronger muscle strength” and the “elasticity value in treated diabetic rats compared with non-diabetic rats treated with saline” value (STZ-diabetic rats) was “not statistically different”.
For `N[C@@H](CCCCNC[C@H](O)[C@@H](O)[C@@H](O)[C@H](O)CO)C(=O)O` [galactitollysine], the “urinary or plasma 3DG” value (3DG [7]) is listed as “can be reduced” and the “Plasma 3-deoxyglucosone reduced” value (3-deoxyglucosone) is listed as 50%.
In the case of `CNC[C@H](O)[C@@H](O)[C@H](O)[C@H](O)CO` [meglumine, reference compound], the “urinary or plasma 3DG” value (3DG [7]) is listed as “can be reduced”.
For `N[C@@H](CCCCNC[C@@H](O)[C@@H](O)[C@H](O)[C@H](O)CO)C(=O)O` [mannitollysine], the “urinary or plasma 3DG” value (3DG [7]) is given as “can be reduced” and the “Plasma 3-deoxyglucosone reduced” value (3-deoxyglucosone) is given as 58%.
For `N[C@@H](CCCCNC[C@H](O)[C@@H](O)[C@H](O)[C@H](O)CO)C(=O)O` [sorbitollysine], the “urinary or plasma 3DG” value (3DG [7]) is given as “can be reduced” and the “Plasma 3-deoxyglucosone reduced” value (3-deoxyglucosone) is given as 40%.
